In brackets after ≈: the same amount, converted by molar mass.
Experiments:
HUVEC [1] = assay: Antiangiogenic activity against HUVEC cells assessed as inhibition of vascular formation at >1 ug/ml after 6 hrs by […]; type: functional, Homo sapiens
Renca [2] = assay: Antiinvasive activity against mouse Renca by Matrigel assay; type: functional, cell-based
Renca [3] = assay: Antiinvasive activity against mouse Renca at >1 ug/ml by Matrigel assay; type: functional
Renca [4] = assay: Cytotoxicity against mouse Renca cells at >10 ug/ml; type: functional
[5] = Cytotoxicity against mouse Colon 26-L5 cells; type: functional, cell-based
[6] = Antiinvasive activity against mouse Colon 26-L5 at >1 ug/ml by Matrigel assay; type: functional
[7] = Antiinvasive activity against mouse Colon 26-L5 by Matrigel assay; type: functional
Renca [8] = assay: Cytotoxicity against mouse Renca cells; type: functional, cell-based
[9] = Cytotoxicity against HUVEC cells at >10 ug/ml; type: cell-based; settings: human, read-out: INH
HUVEC [10] = assay: Antiangiogenic activity against HUVEC cells assessed as inhibition of vascular formation after 6 hrs by […]; type: functional, cell-based; settings: Homo sapiens
HUVEC [11] = assay: Cytotoxicity against HUVEC cells; type: cell-based; settings: Homo sapiens
[12] = Cytotoxicity against mouse Colon 26-L5 cells at >1 ug/ml; type: functional
[13] = Antiinvasive activity against mouse Colon 26-L5 assessed as inhibition of cell migration after 6 hrs by Matrigel assay; type: functional
HUVEC [14] = assay: Antiinvasive activity against HUVEC assessed as inhibition of cell migration after 6 hrs by Matrigel assay; type: functional, cell-based; settings: Homo sapiens
[15] = Antiinvasive activity against mouse Colon 26-L5 assessed as inhibition of cell migration at >1 ug/ml after 6 hrs by Matrigel assay; type: functional
[16] = molecular target: Matrix metalloproteinase-9 (Homo sapiens, UniProt P14780); assay: Inhibition of MMP9
Sequence of Matrix metalloproteinase-9 (P14780 whole entry): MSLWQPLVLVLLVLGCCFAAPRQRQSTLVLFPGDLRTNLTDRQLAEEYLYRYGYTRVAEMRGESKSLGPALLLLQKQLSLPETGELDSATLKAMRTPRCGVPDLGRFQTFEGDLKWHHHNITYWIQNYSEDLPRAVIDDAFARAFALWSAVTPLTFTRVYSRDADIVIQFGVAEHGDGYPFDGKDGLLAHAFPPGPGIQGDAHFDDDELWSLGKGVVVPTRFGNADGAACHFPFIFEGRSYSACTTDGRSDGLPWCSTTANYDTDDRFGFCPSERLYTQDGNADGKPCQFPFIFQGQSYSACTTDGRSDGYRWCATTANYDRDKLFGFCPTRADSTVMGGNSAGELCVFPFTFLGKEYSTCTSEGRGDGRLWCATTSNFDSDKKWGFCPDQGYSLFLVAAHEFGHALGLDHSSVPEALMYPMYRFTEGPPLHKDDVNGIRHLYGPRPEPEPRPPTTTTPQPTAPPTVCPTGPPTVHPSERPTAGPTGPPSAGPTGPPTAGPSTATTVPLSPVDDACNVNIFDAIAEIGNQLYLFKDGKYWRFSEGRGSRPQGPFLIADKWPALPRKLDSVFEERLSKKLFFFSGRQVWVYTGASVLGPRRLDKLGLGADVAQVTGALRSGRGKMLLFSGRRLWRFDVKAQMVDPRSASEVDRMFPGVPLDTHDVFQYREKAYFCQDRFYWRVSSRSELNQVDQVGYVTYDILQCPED

[17] = molecular target: 72 kDa type IV collagenase (Homo sapiens, UniProt P08253); assay: Inhibition of MMP2
Sequence of 72 kDa type IV collagenase (P08253 whole entry): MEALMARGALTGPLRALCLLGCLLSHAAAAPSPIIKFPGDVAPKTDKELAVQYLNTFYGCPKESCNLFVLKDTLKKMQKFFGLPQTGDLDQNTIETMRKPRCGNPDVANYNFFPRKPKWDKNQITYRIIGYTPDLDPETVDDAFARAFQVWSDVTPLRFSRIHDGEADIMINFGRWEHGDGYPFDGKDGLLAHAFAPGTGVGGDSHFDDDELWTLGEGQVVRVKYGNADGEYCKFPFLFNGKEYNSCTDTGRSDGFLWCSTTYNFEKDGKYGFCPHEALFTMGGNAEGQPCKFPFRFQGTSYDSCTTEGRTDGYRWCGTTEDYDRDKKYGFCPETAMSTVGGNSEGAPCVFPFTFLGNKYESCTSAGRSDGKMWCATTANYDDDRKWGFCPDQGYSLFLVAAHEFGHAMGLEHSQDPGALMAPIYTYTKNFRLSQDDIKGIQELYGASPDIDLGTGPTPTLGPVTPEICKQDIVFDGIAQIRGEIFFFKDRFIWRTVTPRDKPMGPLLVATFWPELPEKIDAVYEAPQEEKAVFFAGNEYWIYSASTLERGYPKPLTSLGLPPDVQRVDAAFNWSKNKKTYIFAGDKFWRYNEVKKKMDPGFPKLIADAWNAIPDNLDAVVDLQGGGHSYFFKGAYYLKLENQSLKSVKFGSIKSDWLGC

## CC(=O)Oc1cc(OC(C)=O)c2c(c1)N(C/C=C(\C)CC/C=C(\C)CCC=C(C)C)C(=O)c1cccc(OC(C)=O)c1N2
HUVEC [1]
  inhibition (INH): 0%
Renca [2]
  IC50: > 1 µg/mL
Renca [3]
  inhibition (INH): 40%
Renca [4]
  inhibition (INH): 0%
[5]
  IC50: 7.6 µg/mL (≈ 12.9 µM)
[6]
  inhibition (INH): 0%
[7]
  IC50: > 1 µg/mL
Renca [8]
  IC50: > 10 µg/mL
[9]
  cytotoxicity: 0%
HUVEC [10]
  IC50: > 1 µg/mL
HUVEC [11]
  IC50: > 10 µg/mL

## COc1cc(OC)c2c(c1)N(CCC(C)CCCC(C)CCCC(C)C)C(=O)c1cccc(OC)c1N2 (stereo not drawn)
HUVEC [1]
  inhibition (INH): 30%
Renca [2]
  IC50: 1 µg/mL (≈ 1.96 µM)
Renca [3]
  inhibition (INH): 44%
Renca [4]
  inhibition (INH): 31%
[5]
  IC50: > 10 µg/mL
[7]
  IC50: 1 µg/mL (≈ 1.96 µM)
Renca [8]
  IC50: > 10 µg/mL
[9]
  cytotoxicity: 32%
HUVEC [10]
  IC50: > 1 µg/mL
[12]
  inhibition (INH): 8%
HUVEC [11]
  IC50: > 10 µg/mL

## CC(C)CCCC(C)CCCC(C)CCN1C(=O)c2cccc(O)c2Nc2c(O)cc(O)cc21 (stereo not drawn)
[13]
  IC50: > 1 µg/mL
HUVEC [14]
  IC50: 0.0024 µg/mL (≈ 0.00512 µM)
Renca [2]
  IC50: > 1 µg/mL
Renca [3]
  inhibition (INH): 40%
[15]
  inhibition (INH): 22%
Renca [4]
  inhibition (INH): 0%
[5]
  IC50: 10 µg/mL (≈ 21.3 µM)
[6]
  inhibition (INH): 30%
[7]
  IC50: > 1 µg/mL
Renca [8]
  IC50: > 10 µg/mL
[9]
  cytotoxicity: 0%
HUVEC [10]
  IC50: 0.23 µg/mL (≈ 0.491 µM)
HUVEC [11]
  IC50: > 10 µg/mL

## COc1cc(OC)c2c(c1)N(C/C=C(\C)CC/C=C(\C)CCC=C(C)C)C(=O)c1cccc(OC)c1N2
[13]
  IC50: 0.67 µg/mL (≈ 1.33 µM)
HUVEC [14]
  IC50: 0.0076 µg/mL (≈ 0.0151 µM)
Renca [2]
  IC50: 0.78 µg/mL (≈ 1.55 µM)
Renca [4]
  inhibition (INH): 40%
[5]
  IC50: > 10 µg/mL
[7]
  IC50: 1 µg/mL (≈ 1.98 µM)
Renca [8]
  IC50: > 10 µg/mL
[9]
  cytotoxicity: 0%
HUVEC [10]
  IC50: 0.11 µg/mL (≈ 0.218 µM)
[12]
  inhibition (INH): 30%
HUVEC [11]
  IC50: > 10 µg/mL

## CC(C)=CCC/C(C)=C/CC/C(C)=C/CN1C(=O)c2cccc(O)c2Nc2c(O)cc(O)cc21 [DIAZEPINOMICIN]
[16]
  IC50: 1300 nM
[13]
  IC50: 0.63 µg/mL (≈ 1.36 µM)
[17]
  IC50: 994 nM
HUVEC [14]
  IC50: 0.43 µg/mL (≈ 0.93 µM)
Renca [2]
  IC50: 0.78 µg/mL (≈ 1.69 µM)
[5]
  IC50: 7.8 µg/mL (≈ 16.9 µM)
[7]
  IC50: 1 µg/mL (≈ 2.16 µM)
Renca [8]
  IC50: 8.3 µg/mL (≈ 17.9 µM)
HUVEC [10]
  IC50: 0.72 µg/mL (≈ 1.56 µM)
HUVEC [11]
  IC50: 2 µg/mL (≈ 4.32 µM)

## CO[C@@H]1[C@H](OC(=O)/C=C/C=C/C=C/C=C/C(=O)O)CC[C@]2(CO2)[C@H]1[C@@]1(C)O[C@@H]1CC=C(C)C [FUMAGILLIN]
HUVEC [14]
  IC50: 0.023 µg/mL (≈ 0.0502 µM)
HUVEC [10]
  IC50: 0.034 µg/mL (≈ 0.0741 µM)
